In brackets after ≈: the same amount, converted by molar mass.
Key:
Format in all cases: functional
Enterococcus faecium [1] = assay: Bacteriostatic activity against vancomycin-sensitive Enterococcus faecium
Enterococcus faecalis = assay: Bacteriostatic activity against vancomycin-sensitive Enterococcus faecalis
Enterococcus faecium [2] = assay: Bacteriostatic activity against vancomycin-resistant Enterococcus faecium
Enterococcus = assay: Bacteriostatic activity against vancomycin-sensitive Enterococcus

## CN[C@H](CC(C)C)C(=O)N[C@H]1C(=O)N[C@@H](CC(N)=O)C(=O)N[C@H]2C(=O)N[C@H]3C(=O)N[C@H](C(=O)N[C@H](C(=O)O)c4cc(O)cc(O)c4-c4cc3ccc4O)[C@H](O)c3ccc(c(Cl)c3)Oc3cc2cc(c3O[C@@H]2O[C@H](CO)[C@@H](O)[C@H](O)[C@H]2O[C@H]2C[C@](C)(N)[C@H](O)[C@H](C)O2)Oc2ccc(cc2Cl)[C@H]1O [VANCOMYCIN]
Enterococcus faecium [1]
  MIC50: 0.5 µg/mL (≈ 0.345 µM)
  MIC90: 0.5 µg/mL (≈ 0.345 µM)
Enterococcus faecalis
  MIC50: 0.5 µg/mL (≈ 0.345 µM)
  MIC90: 1 µg/mL (≈ 0.69 µM)
Enterococcus faecium [2]
  MIC50: > 128 µg/mL
  MIC90: > 128 µg/mL
Enterococcus
  MIC50: 0.5 µg/mL (≈ 0.345 µM)
  MIC90: 2 µg/mL (≈ 1.38 µM)

Reference: ChEMBL document CHEMBL3286113, “New potent antibacterial oxazolidinone (MRX-I) with an improved class safety profile” (J Med Chem, 2014)
